Tests used:
Candida albicans = Candida albicans induced vaginal infection in mice; format: in vivo, female mice; settings: Table I; percentage drug concentration giving 50% of the score of untreated control; intravaginal
Method: A majority of the compounds of formula 3 were evaluated together with the prior art compound of formula 2 in a Candida albicans induced vaginal infection in mice and a Trichophyton quinekeanum induced skin infection in guinea pigs. Sabouraud broth was inoculated with Candida albicans and the inoculum incubated for two days at 28° C. on a rotary shaker. Groups of four to five female mice weighing between 18-21 grams were infected intravaginally with a 0.01 ml portion of the cell suspension containing 10^8 cells/ml on day 0. The mice were treated subcutaneously with 0.5 mg of estradiol benzoate three days before and four days after infection. The test compounds were suspended in 1% carboxymethyl cellulose and 0.02 ml of the suspension was instilled intravaginally from day 0 (four hours after infection) to day 4 (5 applications). On day 7, vaginal exudate was taken by a thin glass rod and streaked on a YGP agar plate containing 100 mcg/ml of chloramphenicol. The plate was incubated for two days at 28° C. […] In the following Table I the antifungal activity of the test compound is reported as the EC50 value, which is the percentage drug concentration giving 50% of the score of untreated control animals. The EC50 was calculated by the method of least squares (K. Brounlee: Statistical Theory and Methodology in Science and Engineering, pages 345-349, Wiley Press, New York, 1965). In Table II a more detailed comparison on the in vivo antifungal activities of compound 3a and the isomeric prior art compound 2 are shown together with the data for compound 3b.

Trichophyton quinekeanum = Trichophyton quinekeanum induced skin infection in guinea pigs; format: in vivo, male guinea pigs; settings: Table I; percentage drug concentration giving 50% of the score of untreated control; topical ointment
Method: In the guinea pig skin infection test, Trichophyton quinekeanum was cultured on a YGP agar slant at 28° C. for 10 days. Spores were collected from the mycelial mat and suspended in Sabouraud broth containing 2% of Tween 80. Groups of 3 male guinea pigs weighing between 400-500 g were used for each dose of test compound. The flanks of the animals were depilated and injured with sandpaper. The injured area was inoculated and rubbed with a glass rod on day 0 with 0.2 ml of the spore suspension containing 10^8 CFU/ml. The test compound was combined with a 1:1 mixture of polyethylene glycol 400 and 4000, and 0.3 ml of the ointment was applied to the infected area on day 1, 3 and 5. Lesions were examined on day 7 and scored as follows: 0, normal; 1, erythema; 2, erythema with whitish area; 3, erythema and numerous whitish areas; 4, erythema with confluent scaling and whitish pateches. A compound showing a mean score of 1.5 or less was considered active.
In the following Table I the antifungal activity of the test compound is reported as the EC50 value, which is the percentage drug concentration giving 50% of the score of untreated control animals. The EC50 was calculated by the method of least squares (K. Brounlee: Statistical Theory and Methodology in Science and Engineering, pages 345-349, Wiley Press, New York, 1965). In Table II a more detailed comparison on the in vivo antifungal activities of compound 3a and the isomeric prior art compound 2 are shown together with the data for compound 3b.
Treatment: 5 applications (day 0 to 4) against candida vaginal infection
and 3 applications (day 1, 3 and 5) against trichophyton skin infection

Streptococcus pneumoniae = test: in vitro antibacterial activity (MIC), S. pneumoniae; format: cell-based; settings: 50% Nutrient Broth + 5% human serum
Streptococcus pyogenes = test: in vitro antibacterial activity (MIC), S. pyogenes; format: cell-based; settings: 50% Nutrient Broth + 5% human serum
S. faecalis = test: in vitro antibacterial activity (MIC), S. faecalis; format: cell-based, Streptococcus faecalis; settings: Enterococcus faecalis; Nutrient Broth
Staphylococcus aureus = test: in vitro antibacterial activity (MIC), S. aureus; format: cell-based; settings: Nutrient Broth

EC50, Candida Vaginal Infection (Candida albicans): 0.050%
EC50, Trichophyton Skin Infection (Trichophyton quinekeanum): 0.047%
MIC (Streptococcus pneumoniae): 63 µg/mL
MIC (Streptococcus pyogenes): 32 µg/mL
MIC (S. faecalis): 2 µg/mL
MIC (Staphylococcus aureus; Strain A): 0.5 µg/mL
MIC (Staphylococcus aureus; Strain B): 16 µg/mL
MIC (Staphylococcus aureus; Strain C): 0.5 µg/mL
Structure (SMILES): Clc1ccc(C(Cn2ccnc2)SCSCc2ccsc2Cl)c(Cl)c1.O=C(O)C(=O)O (centres unmarked) [Compound 3h, 1-[2-(2-Chloro-3-thienylmethylthiomethylthio)2-(2,4-dichlorophenyl)ethyl]-1H-imidazole hydrogen oxalate]

From patent publication US4315023A, “1-Phenethylimidazole derivatives” (Westwood Pharmaceuticals, Inc., priority 1980, dated 1982)
